Test results taken from EPA's ToxRefDB 2.

Assays:
[1] = system: dog; settings: Chronic toxicity; beagle; Oral; Feed; dose end: 52 week; group: systemic; systemic / in life observation / body weight / body weight gain + systemic / organ weight / heart / absolute + systemic / organ weight / …
[2] = system: rat; settings: Combined chronic toxicity/carcinogenicity, sprague dawley, Oral, Feed, dose end: 104 week, group: systemic
[3] = system: mouse; settings: Subchronic oral toxicity in rodents, cd1, Feed, dose end: 90 day, group: cholinesterase
[4] = system: rat; settings: Multigenerational reproductive toxicity study, other, Oral, Feed, dose end: 2 generation
[5] = system: rabbit; settings: Prenatal developmental toxicity study, new zealand white, Oral, Gavage/Intubation, dose end: 19 GD
[6] = system: rat; settings: Combined chronic toxicity/carcinogenicity, sprague dawley, Oral, Feed, dose end: 24 month
[7] = system: dog; settings: Subchronic oral toxicity in nonrodent, beagle, Feed, dose end: 13 week
[8] = system: mouse; settings: Carcinogenicity, cd1, Oral, Feed, dose end: 78 week
[9] = system: rat; settings: Subchronic oral toxicity in rodents, sprague dawley, Feed, dose end: 13 week
[10] = system: dog; settings: Chronic toxicity, beagle, Oral, Feed, dose end: 52 week, group: cholinesterase
[11] = system: rat; settings: Subchronic oral toxicity in rodents, sprague dawley, Feed, dose end: 90 day, group: systemic, systemic / hematology / erythrocyte (rbc) count differential / erythrocyte (rbc) + systemic / hematology / hematocrit (hct) / hematocrit (…
[12] = system: mouse; settings: Carcinogenicity; cd1; Oral; Feed; dose end: 18 month; group: systemic; systemic / hematology / erythrocyte (rbc) count differential / erythrocyte (rbc) + systemic / hematology / heinz body / heinz body + …
[13] = system: dog; settings: Chronic toxicity, beagle, Oral, Capsule, dose end: 52 week, group: systemic
[14] = system: rat; settings: Multigenerational reproductive toxicity study, sprague dawley, Oral, Feed, dose end: 2 generation
[15] = system: rat; settings: Subchronic oral toxicity in rodents, sprague dawley, Feed, dose end: 90 day, group: systemic
[16] = system: rat; settings: Combined chronic toxicity/carcinogenicity, other, Oral, Feed, dose end: 104 week, group: systemic
[17] = system: mouse; settings: Subchronic oral toxicity in rodents, cd1, Feed, dose end: 90 day, group: systemic
[18] = systemic / in life observation / body weight / body weight + systemic / clinical chemistry / phosphorus / phosphate + systemic / clinical …
[19] = cholinesterase / cholinesterase / cholinesterase / plasma cholinesterase (che) + cholinesterase / cholinesterase / cholinesterase / brain …
[20] = group: cholinesterase, cholinesterase / cholinesterase / cholinesterase / erythrocyte cholinesterase (che) + cholinesterase / cholinesterase / cholinesterase / …
[21] = group: offspring, systemic / in life observation / body weight / offspring (pup) weight
[22] = group: parental, systemic / in life observation / body weight / body weight + systemic / in life observation / clinical signs / abnormal feces + systemic / …
[23] = group: developmental, systemic / in life observation / body weight / fetal weight
[24] = group: maternal, systemic / in life observation / body weight / body weight gain + systemic / in life observation / clinical signs / defecation + systemic / …
[25] = group: systemic, systemic / in life observation / body weight / body weight + systemic / in life observation / body weight / body weight gain + systemic / in…
[26] = group: cholinesterase, cholinesterase / cholinesterase / cholinesterase / plasma cholinesterase (che)
[27] = group: systemic, systemic / clinical chemistry / protein / protein + systemic / in life observation / clinical signs / emaciation + systemic / in life …
[28] = group: cholinesterase, cholinesterase / cholinesterase / cholinesterase / plasma cholinesterase (che) + cholinesterase / cholinesterase / cholinesterase / brain …
[29] = group: systemic, systemic / in life observation / body weight / body weight gain + systemic / in life observation / clinical signs / pneumonia + systemic / …
[30] = group: systemic, systemic / in life observation / body weight / body weight + systemic / in life observation / food consumption / food consumption + systemic…
[31] = cholinesterase / cholinesterase / cholinesterase / brain cholinesterase (che)
[32] = cholinesterase / cholinesterase / cholinesterase / brain cholinesterase (che) + cholinesterase / cholinesterase / cholinesterase / …
[33] = systemic / hematology / jolly bodies / jolly bodies + systemic / hematology / mean corpuscular hemoglobin concentration (mchc) / mean …
[34] = systemic / hematology / mean corpuscular hemoglobin concentration (mchc) / mean corpuscular hemoglobin concentration (mchc)
[35] = group: offspring, systemic / organ weight / spleen / absolute + systemic / organ weight / spleen / relative to body weight
[36] = group: offspring, systemic / organ weight / spleen / absolute + systemic / organ weight / spleen / relative to body weight + systemic / organ weight / liver…
[37] = group: parental, systemic / organ weight / spleen / absolute + systemic / organ weight / spleen / relative to body weight
[38] = group: parental, systemic / organ weight / spleen / relative to body weight + systemic / organ weight / spleen / absolute
[39] = group: reproductive, reproductive / offspring survival early / litter size / litter size
[40] = systemic / hematology / erythrocyte (rbc) count differential / erythrocyte (rbc) + systemic / hematology / hemoglobin (hgb) / hemoglobin (…
[41] = systemic / hematology / methemoglobin / methemoglobin + systemic / hematology / reticulocyte / reticulocyte + systemic / pathology …
[42] = systemic / organ weight / spleen / absolute + systemic / urinalysis / volume / volume
[43] = systemic / organ weight / spleen / absolute + systemic / organ weight / spleen / relative to body weight + systemic / hematology / …

Compound: O=C1CC=C([O-])N=N1.[K+] [Maleic hydrazide, potassium salt]
- LEL [1]: 87 mg/kg/day
- LOAEL [1]: 87 mg/kg/day
- NEL [1]: 25 mg/kg/day
- NOAEL [1]: 25 mg/kg/day
- LOAEL ([2]; systemic / in life observation / body weight / body weight): 500 mg/kg/day
- LEL [2, 18]: 500 mg/kg/day
- NOAEL [2, 18]: 25 mg/kg/day
- NEL ([2]; systemic / organ weight / kidney / absolute + systemic / organ weight / liver / absolute + systemic / in life observation / body weight / …): 25 mg/kg/day

Compound: CCOC(=O)CSc1nc(C(C)(C)C)nn1C(=O)N(C)C [Triazamate]
- LOAEL ([3]; cholinesterase / cholinesterase / cholinesterase / plasma cholinesterase (che)): 4.55 mg/kg/day
- NEL [3, 19]: 0.336 mg/kg/day
- NOAEL [3, 19]: 0.336 mg/kg/day
- LEL ([3]; cholinesterase / cholinesterase / cholinesterase / plasma cholinesterase (che) + cholinesterase / cholinesterase / cholinesterase / …): 4.55 mg/kg/day
- LEL [4, 20]: 17 mg/kg/day
- LOAEL [4, 20]: 17 mg/kg/day
- NEL [4, 20]: 0.7 mg/kg/day
- NOAEL [4, 20]: 0.7 mg/kg/day
- LEL [4, 21]: 101 mg/kg/day
- LOAEL [4, 21]: 101 mg/kg/day
- NEL [4, 21]: 17 mg/kg/day
- NOAEL [4, 21]: 17 mg/kg/day
- LEL [4, 22]: 101 mg/kg/day
- LOAEL [4, 22]: > 101 mg/kg/day
- NEL [4, 22]: 17 mg/kg/day
- NOAEL [4, 22]: ≥ 101 mg/kg/day
- LEL [5, 23]: 0.5 mg/kg/day
- LOAEL [5, 23]: > 10 mg/kg/day
- NEL [5, 23]: 0.05 mg/kg/day
- NOAEL [5, 23]: ≥ 10 mg/kg/day
- LEL [5, 24]: 0.5 mg/kg/day
- LOAEL [5, 24]: 0.5 mg/kg/day
- NEL [5, 24]: 0.05 mg/kg/day
- NOAEL [5, 24]: 0.05 mg/kg/day
- LEL [6, 20]: 11.5 mg/kg/day
- LOAEL [6, 20]: 11.5 mg/kg/day
- NEL [6, 20]: 0.45 mg/kg/day
- NOAEL [6, 20]: 0.45 mg/kg/day
- LEL [6, 25]: 59.2 mg/kg/day
- LOAEL [6, 25]: > 59.2 mg/kg/day
- NEL [6, 25]: 11.5 mg/kg/day
- NOAEL [6, 25]: ≥ 59.2 mg/kg/day
- LEL [7, 26]: 0.03 mg/kg/day
- LOAEL [7, 26]: 0.03 mg/kg/day
- NEL [7, 26]: < 0.03 mg/kg/day
- NOAEL [7, 26]: < 0.03 mg/kg/day
- LOAEL [7, 27]: 3.11 mg/kg/day
- NOAEL [7, 27]: 0.31 mg/kg/day
- NEL ([7]; group: systemic, systemic / in life observation / clinical signs / distended abdomens + systemic / in life observation / clinical signs / vomitting + …): 0.03 mg/kg/day
- LEL ([7]; group: systemic, systemic / in life observation / clinical signs / vomitting): 0.31 mg/kg/day
- LEL [8, 26]: 6.7 mg/kg/day
- LOAEL [8, 26]: 6.7 mg/kg/day
- NEL [8, 28]: 0.13 mg/kg/day
- NOAEL [8, 28]: 0.13 mg/kg/day
- LOAEL ([8]; group: systemic, systemic / in life observation / body weight / body weight gain + systemic / in life observation / clinical signs / pneumonia): 210 mg/kg/day
- LEL [8, 29]: 210 mg/kg/day
- NEL [8, 29]: 6.7 mg/kg/day
- NOAEL [8, 29]: 6.7 mg/kg/day
- LEL [9, 26]: 31 mg/kg/day
- LOAEL [9, 26]: 31 mg/kg/day
- NEL [9, 28]: 3 mg/kg/day
- NOAEL [9, 28]: 3 mg/kg/day
- LOAEL ([9]; group: systemic, systemic / in life observation / body weight / body weight + systemic / in life observation / food consumption / food consumption): 93 mg/kg/day
- LEL [9, 30]: 93 mg/kg/day
- NEL [9, 30]: 31 mg/kg/day
- NOAEL [9, 30]: 31 mg/kg/day
- LEL [10, 31]: 0.0232 mg/kg/day
- LOAEL [10, 31]: 0.0232 mg/kg/day
- NEL [10, 32]: 0.0172 mg/kg/day
- NOAEL [10, 32]: 0.0172 mg/kg/day

Compound: O=C(NC(=O)c1c(F)cccc1F)Nc1ccc(OC(F)(F)C(F)OC(F)(F)F)c(Cl)c1 (centres undefined) [Novaluron]
- LEL [11]: 8.64 mg/kg/day
- LOAEL [11]: 8.64 mg/kg/day
- NEL [11]: 4.38 mg/kg/day
- NOAEL [11]: 4.38 mg/kg/day
- LEL [12]: 53.4 mg/kg/day
- LOAEL [12]: 53.4 mg/kg/day
- NEL [12]: 3.6 mg/kg/day
- NOAEL [12]: 3.6 mg/kg/day
- LOAEL [13, 33]: 100 mg/kg/day
- NOAEL [13, 33]: 10 mg/kg/day
- LEL [13, 34]: 10 mg/kg/day
- NEL [13, 34]: < 10 mg/kg/day
- LOAEL [14, 35]: 74.2 mg/kg/day
- NOAEL [14, 35]: < 74.2 mg/kg/day
- LEL [14, 36]: 74.2 mg/kg/day
- NEL [14, 36]: < 74.2 mg/kg/day
- LOAEL [14, 37]: 74.2 mg/kg/day
- NOAEL [14, 37]: < 74.2 mg/kg/day
- LEL [14, 38]: 74.2 mg/kg/day
- NEL [14, 38]: < 74.2 mg/kg/day
- LEL [14, 39]: 895 mg/kg/day
- LOAEL [14, 39]: > 895 mg/kg/day
- NEL [14, 39]: 298 mg/kg/day
- NOAEL [14, 39]: ≥ 895 mg/kg/day
- LEL [15, 40]: 4.7 mg/kg/day
- NEL [15, 40]: < 4.7 mg/kg/day
- LOAEL [15, 41]: 818 mg/kg/day
- NOAEL [15, 41]: 8.3 mg/kg/day
- LOAEL ([16]; systemic / in life observation / clinical signs / anemia): 30.6 mg/kg/day
- NOAEL ([16]; systemic / in life observation / clinical signs / anemia + systemic / hematology / erythrocyte (rbc) count differential / erythrocyte (rbc…): 1.1 mg/kg/day
- LEL [16, 42]: 1.4 mg/kg/day
- NEL [16, 42]: < 1.4 mg/kg/day
- LEL ([17]; systemic / hematology / erythrocyte (rbc) count differential / erythrocyte (rbc) + systemic / hematology / hematocrit (hct) / hematocrit (…): 15.2 mg/kg/day
- LOAEL ([17]; systemic / organ weight / spleen / absolute + systemic / organ weight / spleen / relative to body weight): 136 mg/kg/day
- NEL [17, 43]: 4.7 mg/kg/day
- NOAEL [17, 43]: 15.2 mg/kg/day
